# Reference: PubChem BioAssay (NCI)
#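 Grown in 96-well plates, cells were treated for 48 hours with each compound at five concentrations. Insufficient inhibition: endpoint recorded as highest concentration tested. The concentration for full growth arrest is given as TGI.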
# How the values were obtained:
# Test in all cases: DTP human tumour cell line panel, 48 h
# A498 renal = system: A498 renal
# HCT-116 colon = system: HCT-116 colon
# EKVX NSCLC = system: EKVX NSCLC
# CCRF-CEM leukemia = system: CCRF-CEM leukemia
# SW-620 colon = system: SW-620 colon
# CAKI-1 renal = system: CAKI-1 renal
# PC-3 prostate = system: PC-3 prostate
# OVCAR-4 ovarian = system: OVCAR-4 ovarian
# HL-60(TB) leukemia = system: HL-60(TB) leukemia
# NCI-H460 lung = system: NCI-H460 lung
# ACHN renal = system: ACHN renal
# U251 CNS = system: U251 CNS
# T-47D breast = system: T-47D breast
# SF-295 CNS = system: SF-295 CNS
# HCC-2998 colon = system: HCC-2998 colon
# M14 melanoma = system: M14 melanoma
# LOX IMVI melanoma = system: LOX IMVI melanoma
# COLO 205 colon = system: COLO 205 colon
# RPMI-8226 leukemia = system: RPMI-8226 leukemia
# HCT-15 colon = system: HCT-15 colon
# HOP-62 NSCLC = system: HOP-62 NSCLC
# SNB-19 CNS = system: SNB-19 CNS
# SF-268 CNS = system: SF-268 CNS
# NCI-H23 lung = system: NCI-H23 lung
# 786-0 renal = system: 786-0 renal
# MDA-MB-435 = system: MDA-MB-435
# MDA-MB-231 breast = system: MDA-MB-231 breast
# SK-MEL-28 melanoma = system: SK-MEL-28 melanoma
# NCI-H522 lung = system: NCI-H522 lung
# SK-OV-3 ovarian = system: SK-OV-3 ovarian
# IGROV1 ovarian = system: IGROV1 ovarian
# MALME-3M melanoma = system: MALME-3M melanoma
# NCI-H226 lung = system: NCI-H226 lung
# SNB-75 CNS = system: SNB-75 CNS
# UACC-62 melanoma = system: UACC-62 melanoma
# SN12C renal = system: SN12C renal
# KM12 colon = system: KM12 colon
# SF-539 CNS = system: SF-539 CNS
# HS 578T breast = system: HS 578T breast
# DU-145 prostate = system: DU-145 prostate
# UACC-257 melanoma = system: UACC-257 melanoma
# OVCAR-8 ovarian = system: OVCAR-8 ovarian
# OVCAR-5 ovarian = system: OVCAR-5 ovarian
# HOP-92 NSCLC = system: HOP-92 NSCLC
# SK-MEL-2 melanoma = system: SK-MEL-2 melanoma
# TK-10 renal = system: TK-10 renal
# NCI/ADR-RES ovarian = system: NCI/ADR-RES ovarian
# MDA-N = system: MDA-N
# MCF7 breast = system: MCF7 breast
# RXF 393 renal = system: RXF 393 renal
# HT29 colon = system: HT29 colon
# MOLT-4 leukemia = system: MOLT-4 leukemia
# K-562 leukemia = system: K-562 leukemia
# A549 NSCLC = system: A549 NSCLC
# BT-549 breast = system: BT-549 breast
# SK-MEL-5 melanoma = system: SK-MEL-5 melanoma
# OVCAR-3 ovarian = system: OVCAR-3 ovarian
# UO-31 renal = system: UO-31 renal
smiles,measurement,setting,value
O=c1c(-c2ccccc2)c(SCCN2CCCC2)n(-c2ccccc2)c(=S)n1-c1ccccc1,TGI,A498 renal,> 100 µM
same,TGI,HCT-116 colon,> 100 µM
same,TGI,EKVX NSCLC,> 100 µM
same,TGI,CCRF-CEM leukemia,> 100 µM
same,TGI,SW-620 colon,> 100 µM
same,TGI,CAKI-1 renal,> 100 µM
same,TGI,PC-3 prostate,> 100 µM
same,TGI,OVCAR-4 ovarian,> 100 µM
same,TGI,HL-60(TB) leukemia,> 100 µM
same,TGI,NCI-H460 lung,> 100 µM
same,TGI,ACHN renal,> 100 µM
same,TGI,U251 CNS,> 100 µM
same,TGI,T-47D breast,> 100 µM
same,TGI,SF-295 CNS,> 100 µM
same,TGI,HCC-2998 colon,> 100 µM
same,TGI,M14 melanoma,> 100 µM
same,TGI,LOX IMVI melanoma,> 100 µM
same,TGI,COLO 205 colon,> 100 µM
same,TGI,RPMI-8226 leukemia,> 100 µM
same,TGI,HCT-15 colon,> 100 µM
same,TGI,HOP-62 NSCLC,> 100 µM
same,TGI,SNB-19 CNS,> 100 µM
same,TGI,SF-268 CNS,> 100 µM
same,TGI,NCI-H23 lung,> 100 µM
same,TGI,786-0 renal,> 100 µM
same,TGI,MDA-MB-435,> 100 µM
same,TGI,MDA-MB-231 breast,> 100 µM
same,TGI,SK-MEL-28 melanoma,> 100 µM
same,TGI,NCI-H522 lung,> 100 µM
same,TGI,SK-OV-3 ovarian,> 100 µM
same,TGI,IGROV1 ovarian,> 100 µM
same,TGI,MALME-3M melanoma,> 100 µM
same,TGI,NCI-H226 lung,> 100 µM
same,TGI,SNB-75 CNS,> 100 µM
same,TGI,UACC-62 melanoma,> 100 µM
same,TGI,SN12C renal,> 100 µM
same,TGI,KM12 colon,> 100 µM
same,TGI,SF-539 CNS,> 100 µM
same,TGI,HS 578T breast,> 100 µM
same,TGI,DU-145 prostate,> 100 µM
same,TGI,UACC-257 melanoma,> 100 µM
same,TGI,OVCAR-8 ovarian,> 100 µM
same,TGI,OVCAR-5 ovarian,> 100 µM
same,TGI,HOP-92 NSCLC,> 100 µM
same,TGI,SK-MEL-2 melanoma,> 100 µM
same,TGI,TK-10 renal,> 100 µM
same,TGI,NCI/ADR-RES ovarian,> 100 µM
same,TGI,MDA-N,> 100 µM
same,TGI,MCF7 breast,> 100 µM
same,TGI,RXF 393 renal,> 100 µM
same,TGI,HT29 colon,> 100 µM
same,TGI,MOLT-4 leukemia,> 100 µM
same,TGI,K-562 leukemia,> 100 µM
same,TGI,A549 NSCLC,> 100 µM
same,TGI,BT-549 breast,> 100 µM
O=C(O)/C(=C/c1ccccc1)c1ccccc1,TGI,A498 renal,> 100 µM
same,TGI,HCT-116 colon,> 100 µM
same,TGI,EKVX NSCLC,> 100 µM
same,TGI,CCRF-CEM leukemia,> 100 µM
same,TGI,SW-620 colon,> 100 µM
same,TGI,CAKI-1 renal,> 100 µM
same,TGI,PC-3 prostate,> 100 µM
same,TGI,OVCAR-4 ovarian,> 100 µM
same,TGI,HL-60(TB) leukemia,> 100 µM
same,TGI,NCI-H460 lung,> 100 µM
same,TGI,ACHN renal,> 100 µM
same,TGI,SK-MEL-5 melanoma,> 100 µM
same,TGI,U251 CNS,> 100 µM
same,TGI,T-47D breast,> 100 µM
same,TGI,SF-295 CNS,> 100 µM
same,TGI,HCC-2998 colon,> 100 µM
same,TGI,M14 melanoma,> 100 µM
same,TGI,LOX IMVI melanoma,> 100 µM
same,TGI,RPMI-8226 leukemia,> 100 µM
same,TGI,HCT-15 colon,> 100 µM
same,TGI,HOP-62 NSCLC,> 100 µM
same,TGI,SNB-19 CNS,> 100 µM
same,TGI,SF-268 CNS,> 100 µM
same,TGI,NCI-H23 lung,> 100 µM
same,TGI,786-0 renal,> 100 µM
same,TGI,MDA-MB-435,> 100 µM
same,TGI,MDA-MB-231 breast,> 100 µM
same,TGI,SK-MEL-28 melanoma,> 100 µM
same,TGI,NCI-H522 lung,> 100 µM
same,TGI,SK-OV-3 ovarian,> 100 µM
same,TGI,IGROV1 ovarian,> 100 µM
same,TGI,MALME-3M melanoma,> 100 µM
same,TGI,SNB-75 CNS,> 100 µM
same,TGI,UACC-62 melanoma,> 100 µM
same,TGI,SN12C renal,> 100 µM
same,TGI,KM12 colon,> 100 µM
same,TGI,SF-539 CNS,> 100 µM
same,TGI,HS 578T breast,> 100 µM
same,TGI,DU-145 prostate,> 100 µM
same,TGI,UACC-257 melanoma,> 100 µM
same,TGI,OVCAR-8 ovarian,> 100 µM
same,TGI,OVCAR-5 ovarian,> 100 µM
same,TGI,OVCAR-3 ovarian,> 100 µM
same,TGI,HOP-92 NSCLC,> 100 µM
same,TGI,SK-MEL-2 melanoma,> 100 µM
same,TGI,UO-31 renal,> 100 µM
same,TGI,TK-10 renal,> 100 µM
same,TGI,NCI/ADR-RES ovarian,> 100 µM
same,TGI,MDA-N,> 100 µM
same,TGI,MCF7 breast,> 100 µM
same,TGI,RXF 393 renal,> 100 µM
same,TGI,HT29 colon,> 100 µM
same,TGI,MOLT-4 leukemia,> 100 µM
same,TGI,K-562 leukemia,> 100 µM
same,TGI,A549 NSCLC,> 100 µM
same,TGI,BT-549 breast,> 100 µM
COc1ccc2nccc(/C=C/c3ccc(N(C)C)cc3)c2c1,TGI,A498 renal,> 10 µM
same,TGI,HCT-116 colon,> 10 µM
same,TGI,EKVX NSCLC,> 10 µM
same,TGI,CCRF-CEM leukemia,> 10 µM
same,TGI,SW-620 colon,> 10 µM
same,TGI,CAKI-1 renal,> 10 µM
same,TGI,PC-3 prostate,> 10 µM
same,TGI,OVCAR-4 ovarian,> 10 µM
same,TGI,HL-60(TB) leukemia,> 10 µM
same,TGI,NCI-H460 lung,> 10 µM
same,TGI,ACHN renal,> 10 µM
same,TGI,SK-MEL-5 melanoma,> 10 µM
same,TGI,U251 CNS,> 10 µM
same,TGI,T-47D breast,> 10 µM
same,TGI,SF-295 CNS,> 10 µM
same,TGI,HCC-2998 colon,> 10 µM
same,TGI,M14 melanoma,> 10 µM
same,TGI,LOX IMVI melanoma,> 10 µM
same,TGI,COLO 205 colon,> 10 µM
same,TGI,RPMI-8226 leukemia,> 10 µM
same,TGI,HCT-15 colon,> 10 µM
same,TGI,HOP-62 NSCLC,> 10 µM
same,TGI,SNB-19 CNS,> 10 µM
same,TGI,SF-268 CNS,> 10 µM
same,TGI,NCI-H23 lung,> 10 µM
same,TGI,786-0 renal,> 10 µM
same,TGI,MDA-MB-435,7.49 µM
same,TGI,MDA-MB-231 breast,> 10 µM
same,TGI,SK-MEL-28 melanoma,> 10 µM
same,TGI,NCI-H522 lung,> 10 µM
same,TGI,SK-OV-3 ovarian,> 10 µM
same,TGI,IGROV1 ovarian,> 10 µM
same,TGI,MALME-3M melanoma,> 10 µM
same,TGI,NCI-H226 lung,> 10 µM
same,TGI,SNB-75 CNS,> 10 µM
same,TGI,UACC-62 melanoma,> 10 µM
same,TGI,SN12C renal,> 10 µM
same,TGI,KM12 colon,> 10 µM
same,TGI,SF-539 CNS,> 10 µM
same,TGI,HS 578T breast,> 10 µM
same,TGI,DU-145 prostate,> 10 µM
same,TGI,UACC-257 melanoma,> 10 µM
same,TGI,OVCAR-8 ovarian,> 10 µM
same,TGI,OVCAR-5 ovarian,> 10 µM
same,TGI,OVCAR-3 ovarian,> 10 µM
same,TGI,HOP-92 NSCLC,> 10 µM
same,TGI,SK-MEL-2 melanoma,> 10 µM
same,TGI,UO-31 renal,> 10 µM
same,TGI,TK-10 renal,> 10 µM
same,TGI,NCI/ADR-RES ovarian,> 10 µM
same,TGI,MDA-N,> 10 µM
same,TGI,MCF7 breast,> 10 µM
same,TGI,RXF 393 renal,> 10 µM
same,TGI,HT29 colon,> 10 µM
same,TGI,MOLT-4 leukemia,> 10 µM
same,TGI,K-562 leukemia,> 10 µM
same,TGI,A549 NSCLC,> 10 µM
same,TGI,BT-549 breast,> 10 µM
